Experimental data from patent US20220194940A1, “HETEROCYCLIC INHIBITORS OF TYROSINE KINASE” (Board of Regents, The University of Texas System, priority 2019, published 2022).

What was measured:
Assay type in all cases: cell-based
[1] = biological target: EGFR A767insASV (Homo sapiens, UniProt P00533, cells depend on it, form not given); test: Ba/F3 cell viability, EGFR A767insASV; settings: logarithm of IC50, second listing in Table 2 (r23)
Protocol: (§1) 72 hours after transduction, 2 μg/ml puromycin (Invitrogen) was added to the medium.

[2] = biological target: T1, EGFR WT (Homo sapiens, UniProt P00533); test: Ba/F3 cell viability (Cell Titer Glo), WT EGFR
T1 construct: expressed in transfected cells; host or cells: Ba/F3 (retroviral transduction, pBABE-Puro-based vectors)
Protocol: as §1

[3] = biological target: T2, EGFR N771insSVDNR (Homo sapiens, UniProt P00533, INS771SVDNR); test: Ba/F3 cell viability, EGFR N771insSVDNR
T2 construct: expressed in transfected cells; host or cells: Ba/F3 (retroviral transduction, pBABE-Puro-based vectors)
Protocol: as §1

[4] = biological target: T3, EGFR A767insTLA (Homo sapiens, UniProt P00533, INS767TLA); test: Ba/F3 cell viability, EGFR A767insTLA; settings: logarithm of IC50
T3 construct: expressed in transfected cells; host or cells: Ba/F3 (retroviral transduction, pBABE-Puro-based vectors)
Protocol: as §1

[5] = biological target: T4, EGFR D770del insGY (Homo sapiens, UniProt P00533, D770Y/INS769G); test: Ba/F3 cell viability, EGFR D770del insGY; settings: logarithm of IC50
T4 construct: expressed in transfected cells; host or cells: Ba/F3 (retroviral transduction, pBABE-Puro-based vectors)
Protocol: as §1

[6] = biological target: T5, EGFR H773insAH (Homo sapiens, UniProt P00533, INS773AH); test: Ba/F3 cell viability, EGFR H773insAH; settings: logarithm of IC50
T5 construct: expressed in transfected cells; host or cells: Ba/F3 (retroviral transduction, pBABE-Puro-based vectors)
Protocol: as §1

[7] = biological target: T6, EGFR N771insHH (Homo sapiens, UniProt P00533, INS771HH); test: Ba/F3 cell viability, EGFR N771insHH; settings: logarithm of IC50
T6 construct: expressed in transfected cells; host or cells: Ba/F3 (retroviral transduction, pBABE-Puro-based vectors)
Protocol: as §1

[8] = biological target: T7, EGFR P772insDNP (Homo sapiens, UniProt P00533, INS772DNP); test: Ba/F3 cell viability, EGFR P772insDNP; settings: logarithm of IC50
T7 construct: expressed in transfected cells; host or cells: Ba/F3 (retroviral transduction, pBABE-Puro-based vectors)
Protocol: as §1

[9] = biological target: T8, EGFR S768I T790M (Homo sapiens, UniProt P00533, S768I/T790M); test: Ba/F3 cell viability, EGFR S768I T790M; settings: logarithm of IC50
T8 construct: expressed in transfected cells; host or cells: Ba/F3 (retroviral transduction, pBABE-Puro-based vectors)
Protocol: as §1

[10] = biological target: T9, EGFR V769insGSV (Homo sapiens, UniProt P00533, INS769GSV); test: Ba/F3 cell viability, EGFR V769insGSV; settings: logarithm of IC50
T9 construct: expressed in transfected cells; host or cells: Ba/F3 (retroviral transduction, pBABE-Puro-based vectors)
Protocol: as §1

[11] = biological target: T10, EGFR V769insGVV (Homo sapiens, UniProt P00533, INS769GVV); test: Ba/F3 cell viability, EGFR V769insGVV; settings: logarithm of IC50
T10 construct: expressed in transfected cells; host or cells: Ba/F3 (retroviral transduction, pBABE-Puro-based vectors)
Protocol: as §1

[12] = biological target: T11, EGFR V769insMASVD (Homo sapiens, UniProt P00533, INS769MASVD); test: Ba/F3 cell viability, EGFR V769insMASVD; settings: logarithm of IC50
T11 construct: expressed in transfected cells; host or cells: Ba/F3 (retroviral transduction, pBABE-Puro-based vectors)
Protocol: as §1

[13] = biological target: T12, EGFR V769L (Homo sapiens, UniProt P00533, V769L); test: Ba/F3 cell viability, EGFR V769L; settings: logarithm of IC50
T12 construct: expressed in transfected cells; host or cells: Ba/F3 (retroviral transduction, pBABE-Puro-based vectors)
Protocol: as §1

[14] = biological target: T13, EGFR H773L/V774M (Homo sapiens, UniProt P00533, H773L/V774M); test: Ba/F3 cell viability, EGFR H773L/V774M; settings: logarithm of IC50
T13 construct: expressed in transfected cells; host or cells: Ba/F3 (retroviral transduction, pBABE-Puro-based vectors)
Protocol: as §1

[15] = biological target: T14, EGFR D770insNPG/C797S (Homo sapiens, UniProt P00533, C797S/INS770NPG); test: Ba/F3 cell viability, EGFR D770insNPG/C797S; settings: logarithm of IC50
T14 construct: expressed in transfected cells; host or cells: Ba/F3 (retroviral transduction, pBABE-Puro-based vectors)
Protocol: as §1

[16] = biological target: T15, EGFR D770insNPG/T790M (Homo sapiens, UniProt P00533, INS770NPG/T790M); test: Ba/F3 cell viability, EGFR D770insNPG/T790M; settings: logarithm of IC50
T15 construct: expressed in transfected cells; host or cells: Ba/F3 (retroviral transduction, pBABE-Puro-based vectors)
Protocol: as §1

[17] = biological target: T16, EGFR S768dupSVD/C797S (Homo sapiens, UniProt P00533, C797S/DUP768-770); test: Ba/F3 cell viability, EGFR S768dupSVD/C797S; settings: logarithm of IC50
T16 construct: expressed in transfected cells; host or cells: Ba/F3 (retroviral transduction, pBABE-Puro-based vectors)
Protocol: as §1

[18] = biological target: T17, EGFR S768dupSVD/T790M (Homo sapiens, UniProt P00533, DUP768-770/T790M); test: Ba/F3 cell viability, EGFR S768dupSVD/T790M; settings: logarithm of IC50
T17 construct: expressed in transfected cells; host or cells: Ba/F3 (retroviral transduction, pBABE-Puro-based vectors)
Protocol: as §1

T2 sequence (P00533 with tags, fused parts or gaps INS771SVDNR): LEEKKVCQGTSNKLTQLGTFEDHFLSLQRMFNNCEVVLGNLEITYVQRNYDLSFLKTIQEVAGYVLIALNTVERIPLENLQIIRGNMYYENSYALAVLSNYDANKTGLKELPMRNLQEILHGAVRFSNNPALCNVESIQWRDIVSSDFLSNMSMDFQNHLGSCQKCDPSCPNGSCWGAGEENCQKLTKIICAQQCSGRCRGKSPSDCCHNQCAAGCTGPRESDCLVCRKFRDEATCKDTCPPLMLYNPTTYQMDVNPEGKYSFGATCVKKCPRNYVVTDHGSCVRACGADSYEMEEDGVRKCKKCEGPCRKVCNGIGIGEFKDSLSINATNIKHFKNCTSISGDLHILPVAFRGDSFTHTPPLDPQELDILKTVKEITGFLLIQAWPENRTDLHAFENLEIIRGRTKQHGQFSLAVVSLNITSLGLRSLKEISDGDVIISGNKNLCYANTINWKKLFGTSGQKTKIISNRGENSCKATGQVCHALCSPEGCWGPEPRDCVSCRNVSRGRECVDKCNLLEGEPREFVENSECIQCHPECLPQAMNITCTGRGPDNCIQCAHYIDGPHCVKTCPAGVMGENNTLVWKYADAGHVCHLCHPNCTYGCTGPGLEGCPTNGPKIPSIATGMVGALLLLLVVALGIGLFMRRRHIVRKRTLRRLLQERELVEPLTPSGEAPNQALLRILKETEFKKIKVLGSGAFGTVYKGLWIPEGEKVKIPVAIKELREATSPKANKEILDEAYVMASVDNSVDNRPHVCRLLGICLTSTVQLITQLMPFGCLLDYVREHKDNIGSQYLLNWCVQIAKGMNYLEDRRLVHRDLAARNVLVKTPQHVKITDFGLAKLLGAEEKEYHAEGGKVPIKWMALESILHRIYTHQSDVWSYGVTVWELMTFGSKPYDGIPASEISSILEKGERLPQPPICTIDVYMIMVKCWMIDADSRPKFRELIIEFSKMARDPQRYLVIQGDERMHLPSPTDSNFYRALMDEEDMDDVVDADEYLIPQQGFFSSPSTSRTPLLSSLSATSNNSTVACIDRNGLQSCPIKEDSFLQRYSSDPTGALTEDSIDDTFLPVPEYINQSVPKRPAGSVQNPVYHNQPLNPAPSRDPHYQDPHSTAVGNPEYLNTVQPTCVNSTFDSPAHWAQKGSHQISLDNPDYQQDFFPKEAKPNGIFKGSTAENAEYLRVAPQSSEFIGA
T1 sequence (P00533 25-1210): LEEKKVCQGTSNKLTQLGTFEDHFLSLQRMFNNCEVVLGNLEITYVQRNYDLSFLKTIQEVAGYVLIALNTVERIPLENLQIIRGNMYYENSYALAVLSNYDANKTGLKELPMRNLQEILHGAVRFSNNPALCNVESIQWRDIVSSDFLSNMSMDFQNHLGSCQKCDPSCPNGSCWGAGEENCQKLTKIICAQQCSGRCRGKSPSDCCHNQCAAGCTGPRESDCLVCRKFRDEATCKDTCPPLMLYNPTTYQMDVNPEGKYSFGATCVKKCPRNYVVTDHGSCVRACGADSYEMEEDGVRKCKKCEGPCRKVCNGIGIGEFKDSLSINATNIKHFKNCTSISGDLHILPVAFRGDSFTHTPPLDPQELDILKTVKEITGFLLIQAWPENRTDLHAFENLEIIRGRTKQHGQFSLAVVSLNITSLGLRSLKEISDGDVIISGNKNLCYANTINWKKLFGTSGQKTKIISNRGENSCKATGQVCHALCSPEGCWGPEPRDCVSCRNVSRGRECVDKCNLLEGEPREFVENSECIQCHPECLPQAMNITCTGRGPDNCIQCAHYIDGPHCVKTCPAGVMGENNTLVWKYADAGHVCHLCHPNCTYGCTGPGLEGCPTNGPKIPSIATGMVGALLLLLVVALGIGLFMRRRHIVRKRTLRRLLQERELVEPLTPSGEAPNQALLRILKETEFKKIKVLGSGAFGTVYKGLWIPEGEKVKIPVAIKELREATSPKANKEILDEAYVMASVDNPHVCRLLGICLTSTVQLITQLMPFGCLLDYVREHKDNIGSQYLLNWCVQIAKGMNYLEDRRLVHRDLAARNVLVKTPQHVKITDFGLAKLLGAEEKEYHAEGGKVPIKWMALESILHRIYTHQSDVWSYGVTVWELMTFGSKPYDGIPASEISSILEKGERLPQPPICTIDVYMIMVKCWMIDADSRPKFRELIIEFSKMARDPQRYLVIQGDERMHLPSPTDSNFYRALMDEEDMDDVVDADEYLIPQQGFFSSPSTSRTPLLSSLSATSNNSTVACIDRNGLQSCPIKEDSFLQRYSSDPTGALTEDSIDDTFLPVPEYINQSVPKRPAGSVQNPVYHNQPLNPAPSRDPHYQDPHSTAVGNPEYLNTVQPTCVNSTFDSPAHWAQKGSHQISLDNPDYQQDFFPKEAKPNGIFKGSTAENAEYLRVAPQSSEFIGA
T11 sequence (P00533 with tags, fused parts or gaps INS769MASVD): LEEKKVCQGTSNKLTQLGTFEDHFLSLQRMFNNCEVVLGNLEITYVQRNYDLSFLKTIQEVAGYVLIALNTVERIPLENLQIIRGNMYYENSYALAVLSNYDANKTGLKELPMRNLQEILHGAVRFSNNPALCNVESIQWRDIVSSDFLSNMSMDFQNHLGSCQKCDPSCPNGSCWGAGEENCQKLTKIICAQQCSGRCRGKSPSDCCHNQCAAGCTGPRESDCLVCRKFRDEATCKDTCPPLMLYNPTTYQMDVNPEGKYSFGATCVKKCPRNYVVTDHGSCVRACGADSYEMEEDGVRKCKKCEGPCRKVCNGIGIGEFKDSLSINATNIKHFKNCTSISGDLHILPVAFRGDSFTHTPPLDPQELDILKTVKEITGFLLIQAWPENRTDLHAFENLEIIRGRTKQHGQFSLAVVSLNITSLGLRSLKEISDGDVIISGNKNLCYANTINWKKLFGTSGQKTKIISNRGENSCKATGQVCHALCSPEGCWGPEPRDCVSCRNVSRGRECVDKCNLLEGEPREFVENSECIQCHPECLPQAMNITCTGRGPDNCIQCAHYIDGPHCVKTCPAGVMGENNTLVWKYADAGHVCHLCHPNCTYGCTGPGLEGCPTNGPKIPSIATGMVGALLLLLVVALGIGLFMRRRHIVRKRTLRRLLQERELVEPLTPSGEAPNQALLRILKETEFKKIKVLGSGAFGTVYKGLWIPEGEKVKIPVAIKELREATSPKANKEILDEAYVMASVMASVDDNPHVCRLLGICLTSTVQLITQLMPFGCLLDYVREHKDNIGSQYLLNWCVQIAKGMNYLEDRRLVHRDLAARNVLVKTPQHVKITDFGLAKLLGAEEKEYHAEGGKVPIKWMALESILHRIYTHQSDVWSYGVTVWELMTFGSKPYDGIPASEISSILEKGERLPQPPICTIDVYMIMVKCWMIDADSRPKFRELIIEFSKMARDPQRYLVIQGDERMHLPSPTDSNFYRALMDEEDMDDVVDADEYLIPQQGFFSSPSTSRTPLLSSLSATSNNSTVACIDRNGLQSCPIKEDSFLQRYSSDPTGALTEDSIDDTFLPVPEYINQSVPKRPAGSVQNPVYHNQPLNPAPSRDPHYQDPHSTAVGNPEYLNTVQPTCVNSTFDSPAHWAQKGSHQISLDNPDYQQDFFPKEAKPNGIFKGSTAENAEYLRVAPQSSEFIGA
T7 sequence (P00533 with tags, fused parts or gaps INS772DNP): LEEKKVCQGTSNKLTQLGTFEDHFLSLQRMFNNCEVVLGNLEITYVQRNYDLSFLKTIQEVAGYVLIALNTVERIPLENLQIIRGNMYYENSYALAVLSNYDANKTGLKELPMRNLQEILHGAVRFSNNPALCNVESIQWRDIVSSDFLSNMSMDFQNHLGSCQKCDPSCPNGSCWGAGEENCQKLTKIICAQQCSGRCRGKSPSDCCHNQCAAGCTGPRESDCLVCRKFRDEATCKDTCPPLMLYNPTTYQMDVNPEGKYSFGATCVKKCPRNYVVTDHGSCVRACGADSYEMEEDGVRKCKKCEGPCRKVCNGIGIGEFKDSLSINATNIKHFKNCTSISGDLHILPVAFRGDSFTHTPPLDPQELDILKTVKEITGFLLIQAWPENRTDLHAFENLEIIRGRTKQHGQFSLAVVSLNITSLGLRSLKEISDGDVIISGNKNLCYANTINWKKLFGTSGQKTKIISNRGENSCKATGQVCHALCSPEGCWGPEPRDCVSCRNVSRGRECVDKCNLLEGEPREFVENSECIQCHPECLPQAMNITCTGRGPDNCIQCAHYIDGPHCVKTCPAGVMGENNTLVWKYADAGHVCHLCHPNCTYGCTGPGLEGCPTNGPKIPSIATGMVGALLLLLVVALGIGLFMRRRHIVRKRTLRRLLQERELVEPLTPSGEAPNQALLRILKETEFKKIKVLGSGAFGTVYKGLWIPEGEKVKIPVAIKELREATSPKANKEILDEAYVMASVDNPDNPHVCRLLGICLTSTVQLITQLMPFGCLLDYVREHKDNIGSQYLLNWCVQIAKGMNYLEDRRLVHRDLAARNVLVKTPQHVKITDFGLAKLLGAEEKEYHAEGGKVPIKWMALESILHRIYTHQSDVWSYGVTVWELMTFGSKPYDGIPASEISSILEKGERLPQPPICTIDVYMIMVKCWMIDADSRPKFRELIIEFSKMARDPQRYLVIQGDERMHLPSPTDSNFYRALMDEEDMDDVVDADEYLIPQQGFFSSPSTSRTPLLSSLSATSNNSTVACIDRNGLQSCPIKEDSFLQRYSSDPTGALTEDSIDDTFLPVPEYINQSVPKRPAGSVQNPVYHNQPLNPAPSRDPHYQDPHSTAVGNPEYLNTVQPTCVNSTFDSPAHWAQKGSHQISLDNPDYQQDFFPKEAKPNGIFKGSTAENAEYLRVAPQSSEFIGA

In the case of `CN(C)C/C=C/C(=O)Nc1cc2c(Nc3ccc(Cl)c(Br)c3)ncnc2cn1` [Example 1, (E)-N-(4-((3-Bromo-4-chlorophenyl)amino)pyrido[3,4-d]pyrimidin-6-yl)-4-(dimethylamino)but-2-enamide], the “Log(IC50, nM)” value [1] is reported as 0.55 nM.
`CN(C)C/C=C/C(=O)Nc1cc2c(Nc3ccc(Cl)c(Cl)c3)ncnc2cn1` [Example 2, (E)-N-(4-((3,4-dichlorophenyl)amino)pyrido[3,4-d]pyrimidin-6-yl)-4-(dimethylamino)but-2-enamide] was tested, and the “Log(IC50, nM)” value ([2]; Ba/F3 EGFR WT, comparison line of Table 3) was 1.03 log(nM), the “Log(IC50, nM)” value ([2]; logarithm of IC50, Ba/F3 cells expressing EGFR WT, Cell Titer Glo, 3 days, Table 2) was 1.03 log(nM) and the “Log(IC50, nM)” value [1] was 0.51 nM. For the same molecule, the “Log(IC50, nM)” value ([3]; logarithm of IC50, first listing in Table 2 (r10)) was 0.98 log(nM), the “Log(IC50, nM)” value ([3]; logarithm of IC50, second listing in Table 2 (r26)) was 1.08 log(nM) and the “Log(IC50, nM)” value [4] was 0.83 log(nM). For the same molecule, the “Log(IC50, nM)” value [5] was 0.71 log10(nM), the “Log(IC50, nM)” value [6] was 0.88 log10(nM) and the “Log(IC50, nM)” value [7] was 0.33 log10(nM). For the same molecule, the “Log(IC50, nM)” value [8] was 0.94 log(nM), the “Log(IC50, nM)” value [9] was 0.81 log10(nM) and the “Log(IC50, nM)” value [10] was 0.98 log(nM). The “Log(IC50, nM)” value [11] was 1.40 log(nM), the “Log(IC50, nM)” value [12] was 0.88 log10(nM) and the “Log(IC50, nM)” value [13] was 0.98 log(nM). The “Log(IC50, nM)” value [14] was 1.41 log(nM), the “Log(IC50, nM)” value [15] was 2.73 log10(nM) and the “Log(IC50, nM)” value [16] was 2.40 log10(nM). For the same molecule, the “Log(IC50, nM)” value [17] was 3.06 log(nM) and the “Log(IC50, nM)” value [18] was 2.73 log10(nM).
